Measured values taken from PubChem BioAssay AID2305 (GlaxoSmithKline (GSK), 2010).

test system: P. falciparum 3D7 growth, pLDH absorbance; test: blood-stage malaria parasite growth potency – strain 3D7, dose response (AID 2305)

| SMILES | IC50 [nM] |
| --- | --- |
| Cc1ccc2cc(NC(=O)c3cccc(C(=O)Nc4ccc5nc(C)ccc5c4)n3)ccc2n1 | 1170 |
| Cc1ccc2[nH]c(-c3ccccc3N)cc2c1 | 920 |
| CCCCCCCN1CCC(CC(=O)Nc2ccnc3ccc(OC)cc23)CC1 | 720 |
| COc1ccc(CNC(=O)C2Cc3ccccc3CN2Cc2ccc3ccccc3c2)cc1 (stereo not drawn) | 1100 |
| Cc1ccc(Nc2nc(NN=Cc3cc4c(cc3Br)OCO4)nc(Nc3ccc([N+](=O)[O-])cc3)n2)cc1C | 750 |
| Cc1cc(NC(=O)NCCN2CCC(NC(=O)c3ccc(F)cc3)CC2)c2ccccc2n1 | 330 |
| COc1ccc2c(CCNc3nc(SC)ncc3C(=O)NCCc3ccc(F)cc3)c[nH]c2c1 | 760 |
| Cc1c(CNCCN2CCCCC2)c(C(=O)O)c(C)n1Cc1ccc(Cl)cc1 | 420 |
| COC(=O)c1ccc2c(c1)nc(Nc1cccc(F)c1)n2CC(O)c1ccccn1 (stereo not drawn) | 730 |
| CCn1c(-c2nonc2N)nc2cnc(Oc3cccc(NC(=O)c4ccc(OCCN(C(C)C)C(C)C)cc4)c3)cc21 | 780 |
| COC(=O)c1ccc(CC(C)NCC(O)c2ccc3ccc4ccccc4c3c2)cc1 (stereo not drawn) | 220 |
| CC(C)(C)[C@@H](Nc1ccc(C#N)c2ccccc12)C(=O)NC1(Cc2ccc(O)cc2)CCCC1 | 1440 |
| CCN(CC)CCN(Cc1ccc(-c2ccc(C(F)(F)F)cc2)cc1)C(=O)Cn1c(CCc2cc(F)cc(F)c2)nc(=O)c2ccccc21 | 980 |
| Cc1nc(Nc2cc(Cl)ccc2O)nc(Nc2cc(Cl)ccc2O)c1[N+](=O)[O-] | 30 |
| COc1ccc(CN2CCCN(Cc3cccc(NC(=O)c4ccc(Cl)c(Cl)c4)c3)CC2)cc1 | 970 |
| CC(C)c1ccc(CN2CCCCC(NC(=O)c3cc(-c4ccccc4F)cs3)C2)cc1 (stereo not drawn) | 670 |
| CC1(CCCCN2CCC(Oc3ccc(F)cc3F)CC2)C(=O)Nc2ccccc21 (stereo not drawn) | 760 |
| CCCc1cc(NCc2ccncc2)nc(Nc2ccc(F)cc2)n1 | 1120 |
| CC(C)NCc1cccc(-c2cccc(NC(=O)c3cccc(C#N)c3)c2)c1 | 820 |
| O=C(Nc1ccc(Cl)cc1)Nc1ccc2c(c1)N1CCN=C1S2 | 590 |
| CN(C)CCOc1ccc(NC(=O)NC(C)(C)c2nc(-c3ccc(Cl)c(O)c3)c(-c3ccncc3)[nH]2)cc1 | 110 |
| COc1ccccc1CN1CCC(NC(=O)c2ccc(-c3cccc(C(F)(F)F)c3)s2)CC1 | 1310 |
| Fc1ccc(COc2ccc(Nc3ncnc4ccc(I)cc34)cc2Cl)cc1 | 1180 |
| Cc1ccc(CNC(=O)[C@H](Cc2ccccc2)Nc2cc(C)nc(Nc3ccccc3)n2)cc1 | 850 |
| CN(C)CCCOc1ccc(CN2CC[C@H](NC(=O)c3ccc(Cl)c(Cl)c3)C2)cc1Cl | 960 |

| SMILES | IC50 [nM] |
| --- | --- |
| CCC(CC)NCc1c(O)ccc2c(CNC(CC)CC)c(O)ccc12 | 390 |
| CC(=Nc1ccc(Cl)c(Cl)c1)N(C)C | 540 |
| COc1cccc(CCNCCCCCCNCCc2ccc(Cl)cc2)c1 | 1010 |
| COc1cccc(C(=O)NC(C=Cc2ccccc2)c2cc(Cl)c3cccnc3c2O)c1 (stereo not drawn) | 860 |
| O=C(CCCCCNC(=O)c1ccc(O)c(-c2ccc(Cl)c(Cl)c2)c1)NC1CCCc2ccccc21 (stereo not drawn) | 760 |
| Cc1c(C(=O)[C@@H]2C[C@H]2CN2CCC(N3CCCCC3)CC2)sc2ccccc12 | 1020 |
| COc1ccccc1N(C)CCNc1cc(C)nc(Nc2ccccc2)n1 | 1070 |
| O=C(Nc1cccc(F)c1)NC1CCN(CCCCCNC(=O)[C@@H]2C[C@H]2c2ccc(Cl)c(Cl)c2)CC1 | 760 |
| O=c1cc(NCCNCc2cccc(-c3ccccc3)c2)[nH]c2ccccc12 | 1030 |
| C[C@H](Cc1ccc(OCCNC[C@H](O)c2cccc(Cl)c2)cc1)NC[C@H](O)c1ccc(Cl)c(Cl)c1 | 960 |
| CCc1sc(N2CCN(C)CC2)nc1C(=O)NCCc1ccc(Cl)c(Cl)c1 | 1180 |
| CN1CCCN(Cc2cccc(-c3cccc(NC(=O)c4ccc(Cl)cc4)c3)c2)CC1 | 920 |
| COc1ccccc1N1CCN(C(C(=O)NCc2cccc(F)c2)c2ccc(C)cc2)CC1 (stereo not drawn) | 890 |
| CNC(=O)COC(=O)c1c2c(nc3ccccc13)C(=Cc1ccc3c(c1)OCO3)CCC2 | 640 |
| FC(F)(F)c1ccc(N2CCCN(Cc3cccc(-c4ccccc4CNCc4ccc5c(c4)OCO5)c3)CC2)nc1 | 1190 |
| Cn1cncc1C(=O)Nc1cccc(-c2csc(-c3nc4ccccc4[nH]3)c2)c1 | 450 |
| Cc1ccc(F)c(CN2CCC(N3CC(c4ccccc4)(c4ccccc4)OC3=O)CC2)c1Cl | 590 |
| COc1cccc(Nc2nc(NCCO)c3ccccc3n2)c1 | 150 |
| N=c1c2c(n(Cc3ccc(Cl)cc3Cl)c3c1CCC3)CCCC2 | 350 |
| COc1ccc(NC(=O)/C=C/c2ccccc2Cl)cc1OCCN1CCC(c2nc3ccccc3[nH]2)CC1 | 860 |
| COc1cc(C(=O)NC2CCc3ccccc32)cc(Cl)c1OC (stereo not drawn) | 1100 |
| Cc1cc(N[C@@H](Cc2ccccc2)C(=O)NC2CCCC2)nc(NCc2ccccc2C)n1 | 1230 |
| c1cncc(-c2cccc(CNc3nccc(Nc4ccc(OCCN5CCOCC5)cc4)n3)c2)c1 | 1060 |
| NC(=O)c1cc2nc(Nc3ccc(F)cc3)nc(NC3CCC3)c2[nH]1 | 200 |
| CCN(c1cc(C)nc(Nc2ccc(Cl)cc2)n1)[C@H]1CCN(Cc2ccccc2)C1 | 860 |

| SMILES | IC50 [nM] |
| --- | --- |
| COc1ccc2nccc([C@@H](O)CN3CC[C@H](NCc4ccc5c(n4)NC(=O)CS5)[C@H](F)C3)c2c1 | 910 |
| CCC(=O)c1ccc(-c2ccc(=O)n(CC(=O)N(CCN(CC)CC)Cc3ccc(-c4ccc(C(F)(F)F)cc4)cc3)n2)cc1 | 720 |
| CC[C@H]1CN2CC[C@H]1C[C@H]2[C@H](O)c1cc(-c2ccc(OC(F)(F)F)cc2)nc2ccc(OC)cc12 | 50 |
| Nc1nc(N)c2c(ccc3c2ccn3CC2CC2)n1 | 210 |
| CNCCNCc1ccc(-c2ccc(-c3nc4ccccc4[nH]3)s2)cc1 | 860 |
| COc1ccc(OC)c(C=NNc2nc3ccccc3[nH]2)c1 | 730 |
| COc1ccc(-c2ccc3c(-c4cccc(S(C)(=O)=O)c4)cnc(N)c3c2)cc1 | 1330 |
| CCN(CC)C(C)(C)CN(Cc1ccc(-c2ccc(C(F)(F)F)cc2)cc1)C(=O)Cn1c(CCc2cccc(F)c2F)nc(=O)c2ccccc21 | 960 |
| Nc1nc(N)c2cc(C(F)(F)F)ccc2n1 | 1130 |
| CC1(C)[C@H]2CC[C@@H](CNc3nc(NCCc4cnc[nH]4)nc(NCc4cc(F)ccc4F)n3)[C@@H]1C2 | 310 |
| COc1cc(Nc2ccc3cc(S(=O)(=O)N4CCCCC4C)ccc3n2)cc(OC)c1OC (stereo not drawn) | 1240 |
| O=S(=O)(Nc1cccc(CCN2CCC(N3CCCCC3)CC2)c1)c1ccc2c(c1)OCCO2 | 1230 |
| N#Cc1ccc(CN2CCC(Oc3ccc(NC(=O)c4ccco4)cc3Cl)C2)cc1 (stereo not drawn) | 330 |
| CCCOc1ccc(C(F)(F)F)cc1NC(=O)c1nc2nc(C)cc(C)n2n1 | 250 |
| CCN(CC)CCN(Cc1ccc(-c2ccc(C(F)(F)F)cc2)cc1)C(=O)Cn1c(SCc2ccc(F)cc2)nc(=O)c2sccc21 | 990 |
| CCCC[C@H](NC(=O)OC(C)(C)C)C(=O)Nc1ccc(Cc2ccc(NC(=O)[C@H](CCCC)NC(=O)OC(C)(C)C)cc2)cc1 | 730 |
| COc1ccc2nccc([C@@H](O)CN3CCC(NC(=O)c4ccc(OC)c(N)c4)CC3)c2c1 | 710 |
| O=S(=O)(NC1CCN(c2ccnc3cc(Cl)ccc23)C1)c1cccc(F)c1 (stereo not drawn) | 490 |
| O=C(NCc1ccc(C(=O)NCc2cccc3ccccc23)cc1)c1ccc(O)c(-c2ccc(Cl)c(Cl)c2)c1 | 810 |
| O=C(Nc1ccc(-c2ccccc2)cc1)Nc1cccc(OCCN2CCCC2)c1 | 930 |
| CN1CCOc2ccc(Nc3nnc(-c4cccc(-c5cccnc5)c4)o3)cc2C1 | 100 |
| COc1cc(SC)c(Br)cc1-c1nc2ccncc2[nH]1 | 1100 |
| O=S(=O)(NCCN1CCCC1)c1ccc(-c2cccc(CNCc3ccc(F)cc3)c2)cc1 | 730 |
| O=C(Nc1ccc2c(c1)CCC2)N[C@H]1CCN(Cc2ccc(OCCCN3CCCCC3)cc2)C1 | 860 |
| COc1ccc(CNCc2ccc(-c3ccc(-c4nc5c(C)cccc5[nH]4)s3)cc2)cc1 | 180 |

| SMILES | IC50 [nM] |
| --- | --- |
| Cc1ccc(C(=O)N2CCN(Cc3nccs3)CC2)cc1 | 1010 |
| CC(C)Cn1ccc2c3c(N)nc(N)nc3ccc21 | 30 |
| COc1cccc(C2=CC(c3ccccc3)n3ncc(C(=O)Nc4ccc(Cl)cc4)c3N2)c1 (stereo not drawn) | 1060 |
| O=C(/C=C/c1cccc(Cl)c1)NCCCCCN1CCC(c2c[nH]c3ccccc23)CC1 | 990 |
| COCCNCc1cccc(-c2ccc(CN(C(=O)NC3CCCCC3)C3CCN(Cc4ccccc4)CC3)cc2)c1 | 760 |
| Cc1cc(C2CCN(CCCCNC(=O)c3ccc(-c4ccc(C(F)(F)F)cc4)cc3)CC2)c(C)cc1OCC#N | 1010 |
| NC1=NC(c2ccccc2)N(OCc2ccccc2)C(N)=N1 (stereo not drawn) | 40 |
| C[C@H](Cc1ccc(OCCCCCOc2ccc(C[C@@H](C)NC[C@H](O)c3cccc(Cl)c3)cc2)cc1)NC[C@H](O)c1cccc(Cl)c1 | 190 |
| COc1ccc(-c2nc3c(NCc4ccccc4)nccc3[nH]2)c(OC)c1 | 780 |
| COC(=O)CCCCOc1c(OC)cc(Cc2cnc(N)nc2N)cc1OC | 40 |
| C=CCn1c(Sc2ccc(C#N)c([N+](=O)[O-])c2)nnc1-c1ccc(OC)cc1 | 800 |
| O=C(N[C@H]1CCN(Cc2ccc(OCCN3CCNCC3)c(Br)c2)C1)c1ccc(Cl)c(Cl)c1 | 480 |
| COc1cccc(NC(=O)CSc2nc(-c3ccccc3Cl)ns2)c1 | 810 |
| COc1ccc(Cl)cc1N1CCN(CCCNC(=O)c2ccc(-c3nc4cc(Cl)c(C)cc4[nH]3)c(F)c2)CC1 | 180 |
| CCCCNC(=O)[C@H](Cc1ccccc1)NC(=O)c1ccc(O)c(-c2ccc(Cl)c(Cl)c2)c1 | 530 |
| CCCOc1ccc(N2C(N)=NC(N)=NC2(C)C)cc1 | 490 |
| COc1ccc(NC(=O)[C@H](Cc2ccccc2)Nc2nc(NCCN3CCCC3)ncc2C)cc1 | 990 |
| COc1cccc(CN2CCC(CCOC(c3ccccc3)c3ccc(Cl)cc3)CC2)c1O (stereo not drawn) | 710 |
| Cc1[nH]c2c(C)cc(NS(C)(=O)=O)cc2c1C1CCN(CC2CCN(C(=O)/C=C/c3ccc(Cl)c(Cl)c3)CC2)CC1 | 240 |
| OC1CCC(Nc2ccc3ncc(-c4ccc5ccccc5c4)n3n2)CC1 (stereo not drawn) | 980 |
| NC(N)=Nc1nc(-c2cccc(NC(=O)NCc3cccc4ccccc34)c2)cs1 | 840 |
| O=C(Nc1cccc(CN2CCN(C(=O)c3ccccc3)CC2)c1)c1ccco1 | 890 |
| CCOc1cc(C(=O)N[C@@H](Cc2ccccc2)[C@H](O)CNCc2cccc(OC)c2)cc(N2CCCCS2(=O)=O)c1 | 720 |
